According to patent US4748122A, “2,5-diketo-D-gluconic acid reductase” (Shionogi & Co., Ltd., priority 1983, dated 1988):

Legend:
25DKG-Rase [1] = molecular target: T1, 25DKG-Rase (Corynebacterium sp., UniProt P15339); type: biochemical, Corynebacterium sp. No. 20A-77 mutant (FERM-BP 108); details: 10 μl enzyme solution, 25 μmoles substrate, 15 μmoles NADPH, 30° C., 60 minutes; gas chromatography
T1 construct: The enzyme is an intracellular enzyme extracted from the cells of the 2KLG producing strain; made in house; host or cells: natural producer Corynebacterium sp; No. 20A-77 mutant FERM-BP 108, enzyme purified from sonicated cells; not recombinant
T1 sequence (P15339 2-277 limits assumed): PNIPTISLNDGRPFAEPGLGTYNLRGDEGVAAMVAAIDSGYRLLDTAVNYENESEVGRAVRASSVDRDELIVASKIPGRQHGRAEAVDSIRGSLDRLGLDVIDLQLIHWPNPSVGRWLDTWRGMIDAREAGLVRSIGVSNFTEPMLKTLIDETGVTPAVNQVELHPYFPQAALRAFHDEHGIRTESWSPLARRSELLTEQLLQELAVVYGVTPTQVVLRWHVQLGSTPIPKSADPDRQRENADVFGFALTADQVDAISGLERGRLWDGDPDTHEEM

[2] = test system: 25DKG-Rase derived from Strain K-106; assay: Enzymatic activity of 25DKG-Rase obtained from K-106 (Example 2); type: biochemical, Corynebacterium sp. No. K-106 (ATCC 31,088); details: enzyme from K-106, coenzyme NADH
[3] = test system: 25DKG-Rase derived from Strain K-106; assay: as above; type: biochemical, Corynebacterium sp. No. K-106 (ATCC 31,088); details: for Enzymatic activity (relative activity): 100 = activity at pH 7, 30° C.
Description: (§1) Two point nine (2.9) ml of 0.1M TB (pH 7) containing 0.3 μmoles of NADPH was placed in a quartz cubette having 1 cm optical length difference and added 1-5 μl of the enzyme solution obtained above (3) thereto. Then, to the mixture, each 0.1 ml of the various substrate solutions (0.1M) were added while being kept at 30° C. Reactivities of the enzyme on the respective substrates were determined, by means of successive measurement of the decrease in absorption at 340 nm, on the basis of the decrease for 1 minute.
(§2) The measurements of the physico-chemical properties were conducted in a manner as described in Example 1-(4) (5).
(§3) Enzymatic activities of 25DKG-Rases obtained from K-106 and T-13 were measured at varying pH from 4 to 9 (substrate: Ca-25DKG, reaction temperature: 30° C.).
(§4) The enzymatic activities of 25DKG-Rases obtained from K-106 and T-13 were measured at varying temperature (pH 7.0, substrate: Ca-25DKG).

[4] = test system: 25DKG-Rase derived from Strain K-106; assay: Substrate specificity by product formation, enzyme from K-106; type: biochemical, Corynebacterium sp. No. K-106 (ATCC 31,088)
Description: (§5) The purified enzyme solution (10 μl) obtained above (3) was mixed with 25 μmoles of a substrate (Ca-25DKG or 5KF) and 3.0 ml of 0.01M TB (pH 7) containing 15 μmoles of NADPH and the mixture was allowed to react at 30° C. for 60 minutes. After the reaction, the reaction mixture was analyzed by paper chromatography (developing solvent; phenol:formic acid:water=75:4:25, chromogenic agent; AHF solution, prepared by dissolving 0.93 g of anilin and 1.66 g of phthalic acid in 100 ml of water-saturated n-butanol and heating at 105° C. for 2 minutes) and by gas chromatography (column; SE-52, carrier gas: Helium, sample; trimethylsilylated derivative). […] In Table 1, the results of quantitative determination of the products by gas chromatography are shown.
as §2

[5] = test system: 25DKG-Rase derived from Strain T-13; assay: Enzymatic activity of 25DKG-Rase obtained from T-13 (Example 2); type: biochemical, Corynebacterium sp. No. T-13 (ATCC 31,089); details: enzyme from T-13, coenzyme NADH
25DKG-Rase [6] = molecular target: T1, 25DKG-Rase; assay: Spectrophotometric enzymatic activity (decrease in absorption at 340 nm), purified enzyme solution of Example 1; type: biochemical, Corynebacterium sp. No. 20A-77 mutant (FERM-BP 108); details: for Enzymatic activity: per 1 ml purified enzyme solution
[7] = test system: 25DKG-Rase derived from Strain T-13; assay: Substrate specificity by product formation, enzyme from T-13; type: biochemical, Corynebacterium sp. No. T-13 (ATCC 31,089)
Description: as §5, §2

[8] = test system: 25DKG-Rase derived from Strain T-13; assay: Enzymatic activity of 25DKG-Rase obtained from T-13 (Example 2); type: biochemical, Corynebacterium sp. No. T-13 (ATCC 31,089); details: for Enzymatic activity (relative activity): 100 = activity at pH 7, 30° C.
Description: as §1, §2, §3, §4

Structure (SMILES): O=C(O)C(=O)[C@@H](O)[C@H](O)C(=O)CO [Ca-25DKG]
- Concentration of the product (25DKG-Rase [1]): 845 µg/mL
- enzymatic activity using NADH as the coenzyme [2]: ≤ 0.1 unit/ml
- Enzymatic activity (relative activity) ([3]; K-106, 22 °C., pH 7.0): 46
- Enzymatic activity (relative activity) ([3]; K-106, 25 °C., pH 7.0): 69
- Enzymatic activity (relative activity) ([3]; K-106, 28 °C., pH 7.0): 86
- Enzymatic activity (relative activity) ([3]; K-106, 30 °C., pH 7.0): 100
- Enzymatic activity (relative activity) ([3]; K-106, 35 °C., pH 7.0): 115
- Enzymatic activity (relative activity) ([3]; K-106, 40 °C., pH 7.0): 119
- Enzymatic activity (relative activity) ([3]; K-106, 45 °C., pH 7.0): 93
- Enzymatic activity (relative activity) ([3]; K-106, 50 °C., pH 7.0): 44
- Enzymatic activity (relative activity) ([3]; K-106, pH 4.0, 30° C.): 1
- Enzymatic activity (relative activity) ([3]; K-106, pH 5.0, 30° C.): 48
- Enzymatic activity (relative activity) ([3]; K-106, pH 6.0, 30° C.): 103
- Enzymatic activity (relative activity) ([3]; K-106, pH 7.0, 30° C.): 100
- Enzymatic activity (relative activity) ([3]; K-106, pH 8.0, 30° C.): 70
- Enzymatic activity (relative activity) ([3]; K-106, pH 9.0, 30° C.): 6
- Enzymatic activity per protein ([3]; enzyme from Strain K-106, NADPH): 95 units/mg protein
- Enzymatic activity ([3]; enzyme from Strain K-106, purified enzyme solution, NADPH): 23.8 units/ml
- product formed (substrate specificity) [4]: produced only Ca-2KLG
- enzymatic activity using NADH as the coenzyme [5]: ≤ 0.1 unit/ml
- Enzymatic activity (25DKG-Rase [6]; 15 °C., pH 7): 14 unit/ml
- Enzymatic activity (25DKG-Rase [6]; 25 °C., pH 7): 29 unit/ml
- Enzymatic activity (25DKG-Rase [6]; 27.5 °C., pH 7): 44 unit/ml
- Enzymatic activity (25DKG-Rase [6]; 30 °C., pH 7): 54 unit/ml
- Enzymatic activity (25DKG-Rase [6]; 32.5 °C., pH 7): 59 unit/ml
- Enzymatic activity (25DKG-Rase [6]; 35 °C., pH 7): 64 unit/ml
- Enzymatic activity (25DKG-Rase [6]; 40 °C., pH 7): 67 unit/ml
- Enzymatic activity (25DKG-Rase [6]; 45 °C., pH 7): 44 unit/ml
- Enzymatic activity (25DKG-Rase [6]; 50 °C., pH 7): 10 unit/ml
- Activity of the purified enzyme solution (1 ml) (25DKG-Rase [6]; NADPH, 0.1M TB pH 7, 30° C.): 54 units
- Enzymatic activity (25DKG-Rase [6]; pH 4.0, 3,3-dimethylglutaric acid buffer): 1 unit/ml
- Enzymatic activity (25DKG-Rase [6]; pH 5.0, 3,3-dimethylglutaric acid buffer): 22 unit/ml
- Enzymatic activity (25DKG-Rase [6]; pH 6.0, Good (PIPES) buffer): 59 unit/ml
- Enzymatic activity (25DKG-Rase [6]; pH 6.5, Good (PIPES) buffer): 57 unit/ml
- Enzymatic activity (25DKG-Rase [6]; pH 7.0, Good (PIPES) buffer): 53 unit/ml
- Enzymatic activity (25DKG-Rase [6]; pH 7.0, Tris buffer): 54 unit/ml
- Enzymatic activity (25DKG-Rase [6]; pH 7.5, Tris buffer): 44 unit/ml
- Enzymatic activity (25DKG-Rase [6]; pH 8.0, Tris buffer): 32 unit/ml
- Enzymatic activity (25DKG-Rase [6]; pH 8.5, Tris buffer): 11 unit/ml
- Enzymatic activity (25DKG-Rase [6]; pH 9.0, Tris buffer): 7 unit/ml
- product formed (substrate specificity) [7]: produced only Ca-2KLG
- Enzymatic activity (relative activity) ([8]; T-13, 22 °C., pH 7.0): 64
- Enzymatic activity (relative activity) ([8]; T-13, 25 °C., pH 7.0): 79
- Enzymatic activity (relative activity) ([8]; T-13, 28 °C., pH 7.0): 92
- Enzymatic activity (relative activity) ([8]; T-13, 30 °C., pH 7.0): 100
- Enzymatic activity (relative activity) ([8]; T-13, 35 °C., pH 7.0): 115
- Enzymatic activity (relative activity) ([8]; T-13, 40 °C., pH 7.0): 133
- Enzymatic activity (relative activity) ([8]; T-13, 45 °C., pH 7.0): 128
- Enzymatic activity (relative activity) ([8]; T-13, 50 °C., pH 7.0): 92
- Enzymatic activity (relative activity) ([8]; T-13, pH 4.0, 30° C.): 1
- Enzymatic activity (relative activity) ([8]; T-13, pH 5.0, 30° C.): 65
- Enzymatic activity (relative activity) ([8]; T-13, pH 6.0, 30° C.): 104
- Enzymatic activity (relative activity) ([8]; T-13, pH 7.0, 30° C.): 100
- Enzymatic activity (relative activity) ([8]; T-13, pH 8.0, 30° C.): 64
- Enzymatic activity (relative activity) ([8]; T-13, pH 9.0, 30° C.): 19
- Enzymatic activity per protein ([8]; enzyme from Strain T-13, NADPH): 89 units/mg protein
- Enzymatic activity ([8]; enzyme from Strain T-13, purified enzyme solution, NADPH): 15.1 units/ml
